Where a name gives a salt, the structure may show the parent alone. Read-outs that look alike come from different tables or passages of the source.
Legend:
Colo205 = test: Cytostatic activity on human colon cancer cell line Colo205 (WST-1); format: cell-based; settings: for inhibition at 10 µM: Homo sapiens, COLO 205, 72 h
Procedure: (§1) The cytostatic rates of the test compound on the human pancreatic cancer cell line AsPC-1 and the human colon cancer cell line Colo205 were determined in the following manner.
(§2) For culturing AsPC-1, RPMI 1640 medium containing 20% fetal bovine serum, 1 mmol/L sodium pyruvate, 10 mmol/L HEPES, 4.5 g/L glucose and penicillin/streptomycin (1:1). The Colo205 cell was cultured using RPMI 1640 medium containing 10% fetal bovine serum, 1 mmol/L sodium pyruvate, 10 mmol/L HEPES, 4.5 g/L glucose and penicillin/streptomycin (1:1) was used. Each 80 μL of the AsPC-1 cell having a concentration of 5×10^4 cells/mL (or the Colo205 having a concentration of 5×10^4 cells/mL) was inoculated to wells of a TC MICROWELL 96F plate (Nalge Nunc International, Catalog No. 167008) and was cultured in a 5% carbon dioxide gas incubator at 37° C. for 24 hours. Each 20 μL of a solution of the test compound in DMSO which was prepared to make the final concentration to 1 μmol/L or 10 μmol/L, was added to each well. Each 20 μL of DMSO was added to the control well and the blank well to a final concentration of 0.1%. After adding the test compound, the cell was incubated in a 5% carbon dioxide gas incubator at 37° C. for 72 hours except for the blank well. After adding 20 μL of WST-1 reagent which was diluted to 50% by RPMI medium to each well, the cells were further incubated at 37° C. for 2 hours. Then, the absorbances at 450 nm (reference wavelength: 690 nm) were determined with a microplate spectrophotometer SPECTRA max 340PC. The cytostatic rate (%) was then determined in the similar manner to the above multiple myeloma cell lines.

KMS-11 = test: Cytostatic activity on human multiple myeloma cell line KMS-11 (WST-1); format: cell-based; settings: for inhibition at 1 µM: Homo sapiens, KMS-11, 72 h, read-out: cytostatic rate (%) KMS-11 (1 μmol/L)
How it was run: (§3)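 Cells pre-cultured 24 h at 37 °C, 5% CO2, then exposed 72 h to compound at final 1 or 10 μmol/L (0.1% DMSO). WST-1 added for 2 h, absorbance at 450 nm (ref 690 nm). Cytostatic rate = 100 minus relative growth, with DMSO control as 100% and blank as 0%.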

AsPC-1 = test: Cytostatic activity on human pancreatic cancer cell line AsPC-1 (WST-1); format: cell-based; settings: for inhibition at 10 µM: Homo sapiens, ASPC1, 72 h
Procedure: as §1, §2

IGF-1R = biological target: T1, IGF-1R (Homo sapiens, UniProt P08069); test: IGF-1R inhibitory activity (kinase reaction, time-resolved fluoroimmunoassay); format: biochemical; settings: IGF-1R active recombinant enzyme, test compound 10 μmol/L
T1 construct: purchased Upstate Co. 14-465
T1 sequence (P08069 959-1367 limits assumed): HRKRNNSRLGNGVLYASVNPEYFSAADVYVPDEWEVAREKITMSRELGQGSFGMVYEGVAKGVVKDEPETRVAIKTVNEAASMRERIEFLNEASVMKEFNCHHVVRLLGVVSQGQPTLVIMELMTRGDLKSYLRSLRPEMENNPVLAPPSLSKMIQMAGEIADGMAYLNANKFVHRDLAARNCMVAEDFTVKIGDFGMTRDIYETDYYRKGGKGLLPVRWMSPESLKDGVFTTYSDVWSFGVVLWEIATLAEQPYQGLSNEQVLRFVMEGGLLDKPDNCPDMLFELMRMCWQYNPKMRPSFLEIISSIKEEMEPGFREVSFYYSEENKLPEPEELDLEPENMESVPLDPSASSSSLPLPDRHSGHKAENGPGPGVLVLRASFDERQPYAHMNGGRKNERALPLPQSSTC
How it was run: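 Compounds were tested at a single 10 μmol/L concentration. Each was incubated with recombinant IGF-1R (200 μg/L), 10 mmol/L ATP, MgCl2/MnCl2 and Na3VO4 (pH 7.5) on immobilized poly(Glu-Tyr) peptide for 30 min at 24° C. Eu-anti-phosphotyrosine time-resolved fluorescence (340/615 nm) gave relative activity against no-compound and no-enzyme wells, reported as % inhibition.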

NCI-H929 = test: Cytostatic activity on human multiple myeloma cell line NCI-H929 (WST-1); format: cell-based; settings: for inhibition at 1 µM: Homo sapiens, NCI-H929, 72 h, read-out: cytostatic rate (%) H929 (1 μmol/L)
How it was run: as §3

[1] = 10 μmol/L, read-out: cytostatic rate (%) Colo205 (10 μmol/L)
[2] = 10 μmol/L, read-out: cytostatic rate (%) AsPC-1 (10 μmol/L)
[3] = Colo205 cells, test compound 10 μmol/L, WST-1, read-out: cytostatic rate (%) Colo205 (10 μmol/L)
[4] = KMS-11 cells, test compound 1 μmol/L, WST-1
[5] = AsPC-1 cells, test compound 10 μmol/L, WST-1, read-out: cytostatic rate (%) AsPC-1 (10 μmol/L)
[6] = NCI-H929 cells, test compound 1 μmol/L, WST-1

Row | Structure (SMILES) | inhibition at 10 µM (IGF-1R) [%] | inhibitory activity (%) at 10 μmol/L (IGF-1R) [%] | inhibition at 10 µM (Colo205; [1]) [%] | inhibition at 1 µM (KMS-11; 1 μmol/L, 72 hours) [%] | inhibition at 10 µM (AsPC-1; [2]) [%] | inhibition at 1 µM (NCI-H929; 1 μmol/L, 72 hours) [%] | cytostatic rate (%) Colo205 (10 μmol/L) (Colo205; 10 μmol/L, 72 hours) [%] | cytostatic rate (%) KMS-11 (1 μmol/L) (KMS-11; 1 μmol/L, 72 hours) [%] | cytostatic rate (%) AsPC-1 (10 μmol/L) (AsPC-1; 10 μmol/L, 72 hours) [%] | cytostatic rate (%) H929 (1 μmol/L) (NCI-H929; 1 μmol/L, 72 hours) [%] | inhibition at 10 µM (Colo205; [3]) [%] | inhibition at 1 µM (KMS-11; [4]) [%] | inhibition at 10 µM (AsPC-1; [5]) [%] | inhibition at 1 µM (NCI-H929; [6]) [%]
1 | Cc1ccsc1C(=O)Nc1cc(CN(CCO)CCN2CCOCC2)ccc1/C=C/c1n[nH]c2ccccc12 [Compound 253, (E)-N-{5-[N-(2-hydroxyethyl)-2-(morpholin-4-yl)ethylaminomethyl]-2-[2-(1H-indazol-3-yl)vinyl]phenyl}-3-methylthiophene-2-carboxamide] | 98.7 | – | 122 | 109 | 100 | 119 | – | – | – | – | – | – | – | –
2 | CCN(CC)CCOc1ccc(/C=C/c2n[nH]c3ccccc23)c(NC(=O)c2sccc2C)c1OC [Compound 263, (E)-N-{3-(2-diethylaminoethoxy)-6-[2-(1H-indazol-3-yl)vinyl]-2-methoxymephenyl}-3-methylthiophene-2-carboxamide] | – | 100.9 | – | – | – | – | 120.5 | 126.2 | 103.4 | 116.0 | – | – | – | –
3 | Cc1ccsc1C(=O)Nc1cc(CN2CCN(CC(C)(C)O)CC2)ccc1/C=C/c1n[nH]c2ccccc12 [Compound 312, (E)-N-{5-[4-(2-hydroxy-2-methylpropyl)piperazin-1-ylmethyl]-2-[2-(1H-indazol-3-yl)vinyl]phenyl}-3-methylthiophene-2-carboxamide] | 105 | – | – | – | – | – | – | – | – | – | 120 | 108 | 101 | 115
4 | Cc1ccsc1C(=O)Nc1cc(CN2CCN(CCOCCO)CC2)ccc1/C=C/c1n[nH]c2ccccc12 [Compound 318, (E)-N-{5-{4-[2-(2-hydroxyethoxy)ethyl]piperazin-1-ylmethyl}-2-[2-(1H-indazol-3-yl)vinyl]-phenyl}-3-methylthiophene-2-carboxamide] | 94.7 | – | – | – | – | – | – | – | – | – | 120 | 102 | 103 | 122

Continued, in another order:

Row | inhibition at 10 µM (IGF-1R) [%] | inhibitory activity (%) at 10 μmol/L (IGF-1R) [%] | Structure (SMILES) | inhibition at 10 µM (Colo205; [1]) [%] | inhibition at 1 µM (KMS-11; 1 μmol/L, 72 hours) [%] | inhibition at 10 µM (AsPC-1; [2]) [%] | inhibition at 1 µM (NCI-H929; 1 μmol/L, 72 hours) [%] | cytostatic rate (%) Colo205 (10 μmol/L) (Colo205; 10 μmol/L, 72 hours) [%] | cytostatic rate (%) KMS-11 (1 μmol/L) (KMS-11; 1 μmol/L, 72 hours) [%] | cytostatic rate (%) AsPC-1 (10 μmol/L) (AsPC-1; 10 μmol/L, 72 hours) [%] | cytostatic rate (%) H929 (1 μmol/L) (NCI-H929; 1 μmol/L, 72 hours) [%] | inhibition at 10 µM (Colo205; [3]) [%] | inhibition at 1 µM (KMS-11; [4]) [%] | inhibition at 10 µM (AsPC-1; [5]) [%] | inhibition at 1 µM (NCI-H929; [6]) [%]
5 | 99.9 | – | Cc1ccsc1C(=O)Nc1cc(CNCCN2CCOCC2)ccc1/C=C/c1n[nH]c2ccccc12 [Compound 245, (E)-N-{2-[2-(1H-indazol-3-yl)vinyl]-5-[2-(morpholin-4-yl)ethylaminomethyl]phenyl}-3-methylthiophene-2-carboxamide] | 121 | 118 | 102 | 126 | – | – | – | – | – | – | – | –
6 | 102 | – | Cc1ccsc1C(=O)Nc1cc(N2CCOCC2)ccc1/C=C/c1n[nH]c2ccccc12 [Compound 247, (E)-N-{2-[2-(1H-indazol-3-yl)vinyl]-5-morpholin-4-ylphenyl}-3-methylthiophene-2-carboxamide monohydrochloride] | 123 | 133 | 117 | 127 | – | – | – | – | – | – | – | –
7 | 97.9 | – | Nc1cccc2c1C(=O)N(c1cc(C(=O)N3CCOCC3)ccc1/C=C/c1n[nH]c3ccccc13)C2=O [Compound 288, (E)-4-amino-N-{2-[2-(1H-indazol-3-yl)vinyl]-5-(morpholin-4-ylcarbonyl)phenyl}isoindole-1,3-dione] | 120 | 109 | 94.5 | 118 | – | – | – | – | – | – | – | –

Reference: patent US7605272B2, “IGF-1R inhibitor” (Kyowa Hakko Kirin Co., Ltd., priority 2005, dated 2009)
